The values below are quoted from earlier work in patent US20070281910A1, “Salicyl alcohol creatine phosphate prodrugs, compositions and uses thereof” (XenoPort, Inc., priority 2006, published 2007).

Where two headings read alike, the source gives them in different places.

Experiment in data set [1]: not given
This is another data set of the same source.

For data set [2] the following is noted: animals fed a diet containing up to 1%.

On to `CN(CC(=O)O)C(=N)NP(=O)(O)O` [Creatine phosphate, creatine phosphate], for which the adverse side effects result (patients with cardiac diseases, intravenous injection up to 8 gm/day) is given as “without adverse side effects”.

Turning to `CN(CC(=O)O)C(=N)N.O` [creatine monohydrate], the adverse side effects entry (athletes and body builders, 2-3 gm/day) is given as “without adverse side effects”.

For `CN(CC(=O)O)C(=N)N` [creatine], in data set [1] (creatine supplementation over weeks), the “overall increase of creatine phosphate levels” value is recorded as less than 50%. Further, the “duration of increase in tissue creatine phosphate levels” value in data set [1] (following oral creatine supplementation) is greater than 14 days. In addition, in data set [1] (healthy volunteers, oral creatine administration), the “increase of cerebral creatine phosphate” value is reported as “about 10%”.

Turning to `NC1=NCCN1CC(=O)O` [cyclocreatine], the adverse effects result in data set [2] is reported as “do not exhibit adverse effects”.
